What all share (type): cell-based
The target of assay [1] is DYRK1A (Homo sapiens (Human), UniProt Q13627). The experiment in a line: DYRK1A activity Tau assay: pSer396 Tau in SH-SY5Y cells by ELISA / western blot. The following applies: overnight (16-18 h) exposure. (In general: In an ELISA, binding on a coated surface is turned into a signal by an enzyme label.)
For assay [2], the system named is Wnt activity (Wnt-responsive SP5 promoter luciferase reporter in SW480 cells). The experiment in a line: Wnt activity reporter assay: SW480 cells with SP5 promoter-driven firefly luciferase. The conditions noted are these: Homo sapiens, 24 h after compound addition, read-out: Wnt inhibition. A digest of the protocol:
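SW480 cells (APC-mutant colon line) stably carrying a lentiviral SP5-promoter (eight TCF/LEF sites) firefly luciferase reporter were plated at ~10,000 cells/well. Luminescence was normalized to DMSO-only cells and used for IC50.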
(In general: Reporter assays use an easily measured gene product as a stand-in for the process of interest.)

For assay [3], the system named is primary human fibroblasts derived from IPF patients (LL29 cells). In words: Inhibition of the fibrotic process: αSMA staining in TGF-β1 treated LL29 fibroblasts. The conditions noted are these: Fibroblast, 72 h, TGF-β1 10 ng/ml, 3 days, read-out: Inhibition of fibrosis IC50.
Description: The above synthesized compounds were screened using primary human fibroblasts (derived from IPF patients) treated with TGF-β1 to determine their ability to inhibit the fibrotic process.
Each compound was dissolved in DMSO as a 10 mM stock and used to prepare compound source plates. […] LL29 cells were plated at 1,000 cells/well in 50 μl/well serum free F12 medium. […] Wells untreated with TGF-β1 were used as control for normalization and calculating IC50 values. Cells were incubated at 37° C. and 5% CO2 for 3 days. Cells were fixed using 4% formaldehyde (Electron Microscopy Sciences), washed 3 times with PBS followed by blocking and permeabilization using 3% Bovine Serum Albumin (BSA; Sigma) and 0.3% Triton X-100 (Sigma) in PBS. […] The IC50 values are reported.
For assay [4], the system named is primary human mesenchymal stem cells (hMSCs). In words: Chondrogenesis assay in primary human mesenchymal stem cells, nodule count vs TGF-β3 positive control. The conditions noted are these: 6 days; for Conc (nM) of Max. activity: 6-point dose-response 2700 nM to 10 nM, dose at which maximum chondrogenesis activity was reached; for Conc (nM) of 100% TGF-β3 activity: concentration required to induce chondrogenesis equivalent to TGF-β3 (10 ng/mL); for Max. Activity as % TGF-β3 activity: relative to TGF-β3 (10 ng/mL) positive control. From the text: The above synthesized compounds were screened using primary human mesenchymal stem cells (hMSCs) to determine their ability to induce chondrogenesis (process by which cartilage is developed).
Human Mesenchymal Stem Cell Culture:
Primary human mesenchymal stem cells (hMSCs) were purchased from Lonza (Walkersville, Md.) and expanded in Mesenchymal Stem Cell Growth Media (Lonza). Cells between passage 3 and 6 were used for the experiments.
Number of nodules in each well was normalized to the average of 3 DMSO treated wells on the same plate using Excel (Microsoft Inc.). The normalized averages (fold change over DMSO) of 3 replicate wells for each compound concentration were calculated. Due to solubility limitations of some of the compounds, curve fitting was incomplete leading to inaccurate EC50 determinations.
Using TGF-β3 as a positive control, the concentration of test compounds required to induce equivalent levels of chondrogenesis is reported. In addition, the maximum activity of each compound and the respective dose that each compound reached maximum chondrogenesis activity is reported.

As a reminder, the EC50 is the concentration at which the effect is half-maximal. `CC1CCN(Cc2cncc(-c3ccc4[nH]nc(C(=O)Nc5cccnc5)c4c3)c2)CC1` [Compound 82, 5-(5-((4-Methylpiperidin-1-yl)methyl)pyridin-3-yl)-N-(pyridin-3-yl)-1H-indazole-3-carboxamide] gave an EC50 in assay [1] of 2 nM. Moreover, in assay [2], the IC50 stood at 7 nM. Moreover, in assay [3], the IC50 worked out at 129 nM. Besides, in assay [4], the “Conc (nM) of Max. activity” value is listed as 900 nM, the “Conc (nM) of 100% TGF-β3 activity” value came out at 900 nM and the “Max. Activity as % TGF-β3 activity” value was determined as 109%.

On to `O=C(Nc1ccnc(C(F)(F)F)c1)c1n[nH]c2ccc(-c3cncc(CN4CCCCC4)c3)cc12` [Compound 80, 5-(5-(Piperidin-1-ylmethyl)pyridin-3-yl)-N-(2-(trifluoromethyl)pyridin-4-yl)-1H-indazole-3-carboxamide], for which the response in assay [1] was half-maximal at 36 nM (EC50). Further, the IC50 stood at 36 nM in assay [2] and 303 nM in assay [3]. For the same compound, the “Conc (nM) of Max. activity” value in assay [4] stood at 900 nM. The “Max. Activity as % TGF-β3 activity” value in assay [4] turned out to be 20%.

As for `CC(C)Oc1ccc(NC(=O)c2n[nH]c3ccc(-c4cncc(CN5CC6CC(C5)O6)c4)cc23)cn1` [Compound 85, 5-(5-((6-Oxa-3-azabicyclo[3.1.1]heptan-3-yl)methyl)pyridin-3-yl)-N-(6-isopropoxypyridin-3-yl)-1H-indazole-3-carboxamide], a half-maximal effect in assay [1] (EC50) was put at 4 nM. Also, in assay [2], the IC50 was 61 nM. Also, the IC50 in assay [3] is 180 nM. In addition, in assay [4], the “Conc (nM) of Max. activity” value is given as 900 nM and the “Max. Activity as % TGF-β3 activity” value is given as 49%.

Take `CC(C)NC(=O)c1n[nH]c2ccc(-c3cncc(CN4CCC(F)(F)CC4)c3)cc12` [Compound 132, 5-(5-((4,4-Difluoropiperidin-1-yl)methyl)pyridin-3-yl)-N-isopropyl-1H-indazole-3-carboxamide]: in assay [1], the EC50 came to 6 nM. Further, the IC50 in assay [2] amounted to 47 nM; in assay [3], 237 nM. Further, the “Conc (nM) of Max. activity” value in assay [4] is 2700 nM. Besides, the “Conc (nM) of 100% TGF-β3 activity” value in assay [4] was determined as 2700 nM.

`CN1CCN(c2ccc(NC(=O)c3n[nH]c4ccc(-c5cncc(CN6CCC(F)(F)C6)c5)cc34)cn2)CC1` [Compound 55, 5-(5-((3,3-Difluoropyrrolidin-1-yl)methyl)pyridin-3-yl)-N-(6-(4-methylpiperazin-1-yl)pyridin-3-yl)-1H-indazole-3-carboxamide] returned an EC50 in assay [1] of 1 nM. Moreover, the IC50 stood at 4 nM in assay [2] and 140 nM in assay [3]. In assay [4], the “Conc (nM) of Max. activity” value was found to be 100 nM. Besides, in assay [4], the “Max. Activity as % TGF-β3 activity” value is 69%.

In assay [1], `CC(C)Oc1ccc(NC(=O)c2n[nH]c3ccc(-c4cncc(CN5CCCCC5)c4)cc23)cn1` [Compound 67, N-(6-Isopropoxypyridin-3-yl)-5-(5-(piperidin-1-ylmethyl)pyridin-3-yl)-1H-indazole-3-carboxamide] returned an EC50 of 3 nM. Besides, the IC50 in assay [2] is 41 nM. For the same compound, the IC50 in assay [3] came out at 251 nM. In addition, in assay [4], the “Conc (nM) of Max. activity” value is recorded as 2700 nM and the “Max. Activity as % TGF-β3 activity” value was 82%.

`COc1ccc(NC(=O)c2n[nH]c3ccc(-c4cncc(CN5CCCC5)c4)cc23)cn1` [Compound 53, N-(6-Methoxypyridin-3-yl)-5-(5-(pyrrolidin-1-ylmethyl)pyridin-3-yl)-1H-indazole-3-carboxamide] returned a concentration giving a half-maximal response (EC50) in assay [1] of 2 nM. Moreover, in assay [2], the IC50 was found to be 50 nM. Besides, in assay [3], the IC50 worked out at 231 nM. Besides, in assay [4], the “Conc (nM) of Max. activity” value is 2700 nM and the “Max. Activity as % TGF-β3 activity” value amounted to 86%.

With `Cc1cncc(NC(=O)c2n[nH]c3ccc(-c4cncc(CN5CCCCC5)c4)cc23)c1` [Compound 64, N-(5-Methylpyridin-3-yl)-5-(5-(piperidin-1-ylmethyl)pyridin-3-yl)-1H-indazole-3-carboxamide], the concentration giving a half-maximal response (EC50) in assay [1] was 2 nM. The IC50 in assay [2] is 59 nM. Also, the IC50 in assay [3] came to 265 nM. For the same compound, in assay [4], the “Conc (nM) of Max. activity” value came to 2700 nM and the “Max. Activity as % TGF-β3 activity” value is given as 83%.

For the compound `Cc1ccc(NC(=O)c2n[nH]c3ccc(-c4cncc(CN5CCCCC5)c4)cc23)cn1` [Compound 65, N-(6-Methylpyridin-3-yl)-5-(5-(piperidin-1-ylmethyl)pyridin-3-yl)-1H-indazole-3-carboxamide], the EC50 in assay [1] was found to be 1 nM. Moreover, the IC50 in assay [2] worked out at 57 nM. Also, the IC50 in assay [3] was found to be 172 nM. In assay [4], the “Conc (nM) of Max. activity” value is on record as 900 nM, the “Conc (nM) of 100% TGF-β3 activity” value amounted to 900 nM and the “Max. Activity as % TGF-β3 activity” value amounted to 117%.

Compound `CC(C)CC(=O)Nc1ccncc1NC(=O)c1n[nH]c2ccc(-c3cncc(CN4CCCCC4)c3)cc12` [Compound 73, N-(4-(3-Methylbutanamido)pyridin-3-yl)-5-(5-(piperidin-1-ylmethyl)pyridin-3-yl)-1H-indazole-3-carboxamide] displayed an EC50 in assay [1] of 57 nM. In addition, the figures for the IC50 in assay [2] and in assay [3] were 25 nM and 1870 nM, respectively. In addition, the “Conc (nM) of Max. activity” value in assay [4] is on record as 900 nM. The “Max. Activity as % TGF-β3 activity” value in assay [4] turned out to be 65%.

`COc1ccc(NC(=O)c2n[nH]c3ccc(-c4cncc(CN5CCC(F)(F)C5)c4)cc23)cn1` [Compound 54, 5-(5-((3,3-Difluoropyrrolidin-1-yl)methyl)pyridin-3-yl)-N-(6-methoxypyridin-3-yl)-1H-indazole-3-carboxamide]: in assay [1], a half-maximal effect (EC50) was put at 2 nM. Further, the IC50 in assay [2] is 5 nM. For the same compound, in assay [3], the IC50 was 51 nM. In addition, in assay [4], the “Conc (nM) of Max. activity” value worked out at 300 nM and the “Max. Activity as % TGF-β3 activity” value turned out to be 51%.

On to `C[C@@H]1CN(c2ccc(NC(=O)c3n[nH]c4ccc(-c5cncc(CN6CCCCC6)c5)cc34)cn2)C[C@H](C)O1` [Compound 1141, N-(6-((2S,6R)-2,6-dimethylmorpholino)pyridin-3-yl)-5-(5-(piperidin-1-ylmethyl)pyridin-3-yl)-1H-indazole-3-carboxamide], for which the EC50 in assay [1] is 1 nM. Also, in assay [2], the IC50 amounted to 3 nM. Further, the IC50 in assay [3] amounted to 468 nM. In assay [4], the “Conc (nM) of Max. activity” value stood at 2700 nM, the “Conc (nM) of 100% TGF-β3 activity” value amounted to 2700 nM and the “Max. Activity as % TGF-β3 activity” value is reported as 129%.

These data come from patent US10669240B2, “5-substituted indazole-3-carboxamides and preparation and use thereof” (Samumed, LLC, priority 2014, dated 2020).
